The record followed here is US6191150A, “Formamide compounds as therapeutic agents” (Glaxo Wellcome Inc., priority 1998, dated 2001).

Read-outs that look alike come from different tables or passages of the source.

The subject of one assay is serum TNFα. The assay can be described thus: Murine LPS-stimulated serum TNF inhibition. The class given is in vivo, mouse (C3/hen female mice). To be noted: s.c., 40 mg/kg, 10 min prior to 200 μg/kg i.p. LPS; 90 min after LPS. As to the method:
USA) for a final DMSO concentration of 1%. The dosing solution is sonicated briefly and 0.2 mL is injected subcutaneously 10 min prior to LPS injection, b) for per oral (p.o.) administration, test compounds are formulated in 0.2 mL of PBS and 0.1% Tween 80 and given orally via gavage 10 min prior to LPS administration.
Blood is immediately taken from the caudal vena cava and plasma prepared and frozen at -80° C. Plasma concentrations of TNF are measured by ELISA (Genzyme Co., Cambridge Mass.).

Assay [1] concerns release of soluble tumor necrosis factor α from stimulated monocytes. The assay can be described thus: Cell-based TNFα release inhibition, LPS/PMA-stimulated MonoMac 6 cells, ELISA. To be noted: Homo sapiens, MONO-MAC-6, 37° C., 2 h. As to the method:
Compounds (10 mM) are serially diluted 1:3 in DMSO. Compound dilutions (20 μL) are added to a sterile round bottom 96 well plate (20 μL:200 μL total volume=1:10 for final concentrations of […] for test compounds). MonoMac 6 cell suspension (130 μL, 1.5×10^6 cells/mL) is then added to each well resulting in 2×10^5 cells/well. LPS/PMA (50 μL) solution is then added to each well (final concentrations of 10 ng/mL and 30 ng/mL respectively). The plate is incubated at 37° C. for 2 h then spun at 1,500 rpm for 3 min to pellet cells. The supernatant (120 μL/well) is removed to a new round bottom 96 well plate and diluted 1:10 in PBS. Then, 20 μL of the supernatant is transferred to a Cistron […] ELISA plate and processed according to the manufacturer's instructions to quantitate levels of TNFα. Percent inhibition of TNFα release is calculated at each inhibitor concentration and the data are plotted using standard curve fitting programs. IC50 values are determined from these curves.
On the technique in general: In an ELISA, binding on a coated surface is turned into a signal by an enzyme label.

Another assay addresses stromelysin-1 (Homo sapiens, UniProt P08254). The assay can be described thus: Matrix metalloprotease inhibition, fluorogenic substrate: stromelysin-1. In kind it is biochemical. As to the method: (§1) Assays are conducted in a total volume of 0.180 mL assay buffer (200 mM NaCl, 50 mM Tris, 5 mM CaCl2, 10 μM ZnSO4, 0.005% Brij 35, pH 7.6) in each well of a black 96-well microtiter plate. 19 kD collagenase-1, 20 kD collagenase-3, stromelysin-1,and 50 kD gelatinase B concentrations are adjusted to 500 pM, 30 pM, 5 nM, and 100 pM, respectively. A dose response is generated using an eleven-point, 3-fold serial dilution with initial starting test compound concentrations of 100, 10, or 1 μM. Inhibitor and enzyme reactions are incubated for 30 minutes at ambient temperature and then initiated with 10 μM fluorogenic substrate (above). The product formation is measured at Excitation343 /Emission450 nm after 45-180 minutes using a Fluostar SLT fluorescence analyzer. Percent inhibition is calculated at each inhibitor concentration and the data are plotted using standard curve fitting programs. IC50 values are determined from these curves. Assays are run at low substrate concentration ([S]<<Km) such that the calculated IC50 values are equivalent to Ki within experimental error.

Assay [2] has as its target T1, 19 kD truncated collagenase-1 (MMP-1) (Homo sapiens, UniProt P03956).
T1 construct: 19 kD truncated collagenase-1 (MMP-1)
T1 sequence (P03956 101-269 limits assumed): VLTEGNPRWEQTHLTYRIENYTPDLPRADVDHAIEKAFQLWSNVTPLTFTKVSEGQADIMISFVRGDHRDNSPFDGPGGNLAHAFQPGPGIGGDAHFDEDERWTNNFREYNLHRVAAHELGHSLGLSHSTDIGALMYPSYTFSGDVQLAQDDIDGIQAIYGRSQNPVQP
The assay can be described thus: Matrix metalloprotease inhibition, fluorogenic substrate: collagenase-1. The class given is biochemical. Here is the method:
as §1

A further assay concerns the target T2, TNFα Converting Enzyme (Homo sapiens, UniProt P78536).
T2 construct: Membrane preparation from MonoMac 6 cells; endogenous in cells; host or cells: MonoMac 6 cells, subfractionated membrane preparation
As to the kind of experiment: TNFα converting enzyme inhibition, MonoMac 6 membrane preparation, radiolabeled substrate SPA. As to TNFα Converting Enzyme Ki: 200 nM substrate. The class given is biochemical. As to the method: The reaction is quenched by addition of streptavidin SPA beads (Amersham RPNQ0006), with excess binding capacity relative to substrate, suspended in 250 mM EDTA, pH 8.0. Binding is complete within 15 minutes and plates are counted in a Wallac 1450 Microbeta liquid scintillation counter. Percent inhibition is calculated at each inhibitor concentration and the data are plotted using standard curve fitting programs. IC50 values are determined from these curves. Assays are run at low substrate concentration ([S]<<Km) such that the calculated IC50 values are equivalent to Ki within experimental error.

Where [3] appears, read: read-out: TNFα Converting Enzyme Ki.

stromelysin-1, sequence (P08254 100-477): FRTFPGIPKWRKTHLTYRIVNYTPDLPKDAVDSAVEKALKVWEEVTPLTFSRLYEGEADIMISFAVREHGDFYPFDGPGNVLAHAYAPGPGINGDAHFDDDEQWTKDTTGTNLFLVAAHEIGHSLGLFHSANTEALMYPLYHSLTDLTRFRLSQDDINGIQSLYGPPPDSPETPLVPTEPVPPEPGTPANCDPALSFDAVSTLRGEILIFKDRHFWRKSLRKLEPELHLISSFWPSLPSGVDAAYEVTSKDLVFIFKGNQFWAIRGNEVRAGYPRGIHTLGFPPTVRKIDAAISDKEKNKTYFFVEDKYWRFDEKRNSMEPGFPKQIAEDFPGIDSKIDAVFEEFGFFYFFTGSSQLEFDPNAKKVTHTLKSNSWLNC
T2 sequence (P78536 215-824): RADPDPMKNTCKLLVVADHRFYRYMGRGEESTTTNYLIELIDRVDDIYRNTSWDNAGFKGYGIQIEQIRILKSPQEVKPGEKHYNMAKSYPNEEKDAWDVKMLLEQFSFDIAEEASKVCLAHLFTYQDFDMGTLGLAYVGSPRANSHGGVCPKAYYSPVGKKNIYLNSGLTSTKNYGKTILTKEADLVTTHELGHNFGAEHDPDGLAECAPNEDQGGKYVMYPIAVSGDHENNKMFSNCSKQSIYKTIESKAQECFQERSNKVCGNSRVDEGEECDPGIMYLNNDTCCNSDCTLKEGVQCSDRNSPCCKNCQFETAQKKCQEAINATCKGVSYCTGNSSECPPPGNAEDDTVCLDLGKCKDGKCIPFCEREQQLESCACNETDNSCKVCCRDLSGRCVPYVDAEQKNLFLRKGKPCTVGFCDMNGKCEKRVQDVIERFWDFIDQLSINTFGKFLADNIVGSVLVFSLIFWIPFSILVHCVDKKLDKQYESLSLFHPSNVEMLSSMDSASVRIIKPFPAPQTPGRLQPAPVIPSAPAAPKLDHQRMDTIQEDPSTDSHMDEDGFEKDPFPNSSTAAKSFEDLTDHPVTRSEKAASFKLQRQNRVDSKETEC

`CCC[C@@H]([C@@H](CC(C)C)C(=O)N[C@@H](CCCNC(N)=N[N+](=O)[O-])C(=O)Nc1nccs1)N(O)C=O` [Example 1, (2R,3S)-3-(Formyl-hydroxyamino)-2-(2-methyl-1-propyl)hexanoic Acid [(1S)-4-(nitroimino-amino)methylamino-1-(1,3-thiazol-2-ylcarbamoyl)-1-butyl]amide]: the “Percentage Inhibition of Serum TNFα” value in the assay with serum TNFα is recorded as “+++ (>75%)”. This molecule also yielded a half-inhibitory concentration (IC50) in assay [1] below 50 nM. The Ki (at stromelysin-1; in assay [2]) was below 50 nM throughout.

`CC(C)C[C@@H](C(=O)N[C@@H](CCCNC(N)=N[N+](=O)[O-])C(=O)Nc1nccs1)[C@H](Cc1ccccc1)N(O)C=O` [Example 5] returned an IC50 in assay [1] of 250 to 500 nM. Moreover, the Ki (at stromelysin-1; in assay [2]) was below 50 nM each time.

In assay [1], `CCC[C@@H]([C@@H](Cc1ccc(C)s1)C(=O)N[C@@H](CCCNC(N)=N[N+](=O)[O-])C(=O)Nc1nccs1)N(O)C=O` [Example 9, (2R,3S)-3-(Formyl-hydroxyamino)-2-(5-methyl-2-thio-phenemethyl)hexanoic Acid [(1S)-4-((nitroimino-amino)methylamino)-1-(1,3-thiazol-2-ylcarbamoyl)-1-butyl]amide] showed an IC50 of 50 to 250 nM. Further, the Ki at stromelysin-1 was 50 to 250 nM; in assay [2], above 1000 nM.

As to `CC1CCC(C[C@@H](C(=O)N[C@@H](CCCNC(N)=N[N+](=O)[O-])C(=O)Nc2nccs2)[C@H](C(C)C)N(O)C=O)CC1` (stereo partly drawn) [Example 8, (2R,3S)-3-(Formyl-hydroxyamino)-2-(4-methylcyclohexyl-methyl)-4-methylpentanoic Acid [(1S)-4-(nitroimino-amino)methylamino-1-(1,3-thiazol-2-ylcarbamoyl)-1-butyl]amide], the “Percentage Inhibition of Serum TNFα” value with serum TNFα is reported as “++ (50%-75%)”. Also, the IC50 in assay [1] is below 50 nM. Further, the inhibition constant Ki (on stromelysin-1; in assay [2]) was 50 to 250 nM throughout.

As to `CCC[C@@H]([C@@H](CC(C)C)C(=O)N[C@H](C(=O)Nc1nccs1)[C@H](C)CCNC(N)=N[N+](=O)[O-])N(O)C=O` [Example 4, (2R,3S)-3-(Formyl-hydroxyamino)-2-(2-methyl-1-propyl)hexanoic Acid [(1S,2R)-2-Methyl-4-(nitroimino-amino)methylamino-1-(1,3-thiazol-2-ylcarbamoyl)-1-butyl]amide], the inhibition constant Ki on TNFα Converting Enzyme (setting [3]) is below 50 nM; on stromelysin-1 it was 50 to 250 nM; in assay [2], below 50 nM. The molecule further showed an IC50 in assay [1] below 50 nM.

On to `CCC[C@@H]([C@@H](CC1CCC(C)CC1)C(=O)N[C@@H](CCCNC(N)=N[N+](=O)[O-])C(=O)Nc1nccs1)N(O)C=O` (stereo partly drawn) [Example 7, (2R,3S)-3-(Formyl-hydroxyamino)-2-(4-methylcyclohexyl-methyl)hexanoic Acid [(1S)-4-(nitroimino-amino)methyl-amino-1-(1,3-thiazol-2-ylcarbamoyl)-1-butyl]amide], for which, in the assay on serum TNFα, the “Percentage Inhibition of Serum TNFα” value was “++ (50%-75%)”. Besides, the Ki was below 50 nM at TNFα Converting Enzyme (setting [3]), 50 to 250 nM on stromelysin-1 and 50 to 250 nM in assay [2]. In assay [1], this molecule returned an IC50 of 50 to 250 nM.

In the case of `NC(=N[N+](=O)[O-])NCCC[C@H](NC(=O)[C@H](CC1CCCCC1)[C@H](C1CC1)N(O)C=O)C(=O)Nc1nccs1` [Example 10, (2R,3S)-3-(Formyl-hydroxyamino)-2-(cyclohexylmethyl)-3-cyclopropylpropanoic Acid [(1S)-4-(nitroimino-amino)methylamino-1-(1,3-thiazol-2-ylcarbamoyl)-1-butyl]amide], the “Percentage Inhibition of Serum TNFα” value with serum TNFα is given as “++ (50%-75%)”. Further, the inhibition constant Ki is below 50 nM on TNFα Converting Enzyme, above 1000 nM on stromelysin-1 and 50 to 250 nM in assay [2]. The IC50 in assay [1] lay in the range of 250 to 500 nM.

Regarding `CCC[C@@H]([C@@H](CC1CCCCC1)C(=O)N[C@@H](CCCNC(N)=N[N+](=O)[O-])C(=O)Nc1nccs1)N(O)C=O` [Example 2, (2R,3S)-3-(Formyl-hydroxyamino)-2-(cyclohexylmethyl)hexanoic Acid [(1S)-4-(nitroimino-amino)methylamino-1-(1,3-thiazol-2-ylcarbamoyl)-1-butyl]amide], in the assay on serum TNFα, the “Percentage Inhibition of Serum TNFα” value was “++ (50%-75%)”. In addition, the Ki on TNFα Converting Enzyme (setting [3]) is below 50 nM; at stromelysin-1 it was 50 to 250 nM; in assay [2], 50 to 250 nM. The same molecule yielded an IC50 in assay [1] below 50 nM.

In the case of `CC(C)C[C@@H](C(=O)N[C@H](C(=O)Nc1nccs1)[C@H](C)CCNC(N)=N[N+](=O)[O-])[C@H](C)N(O)C=O` [Example 3, (2R,3S)-3-(Formyl-hydroxyamino)-2-(2-methyl-1-propyl)butanoic Acid [(1S,2R)-2-Methyl-4-(nitroimino-amino)methylamino-1-(1,3-thiazol-2-ylcarbamoyl)-1-butyl]amide], the inhibition constant (Ki) at TNFα Converting Enzyme (setting [3]) was below 50 nM; on stromelysin-1, 50 to 250 nM; in assay [2], below 50 nM. The molecule further registered a half-inhibitory concentration (IC50) in assay [1] below 50 nM.

Turning to `NC(=N[N+](=O)[O-])NCCC[C@H](NC(=O)[C@H](CC1CCCCC1)[C@H](CCC(F)(F)F)N(O)C=O)C(=O)Nc1nccs1` [Example 6, (2R,3S)-3-(Formyl-hydroxyamino)-2-(cyclohexylmethyl)-6,6,6-trifluorohexanoic Acid [(1S)-4-(nitroimino-amino)methylamino-1-(1,3-thiazol-2-ylcarbamoyl)-1-butyl]amide], in the assay with serum TNFα, the “Percentage Inhibition of Serum TNFα” value is “++ (50%-75%)”. Moreover, the values for the inhibitory constant (Ki) (at TNFα Converting Enzyme (setting [3]); at stromelysin-1; in assay [2]) were below 50 nM, 50 to 250 nM and 50 to 250 nM, respectively. Further, in assay [1], the IC50 is 50 to 250 nM.

As a reminder, the IC50 is the concentration that inhibits the measured activity by half. As usually defined, the Ki is the equilibrium dissociation constant of an inhibitor or competing ligand from its target.
